Measured values published in article PMC5838563, “Compounds producing an effective combinatorial regimen for disruption of HIV‐1 latency” (EMBO Molecular Medicine, 2017).

What was measured:
CD69 expression on PBMCs = experiment: CD69 expression by flow cytometry on PBMCs from healthy donors; format: cell-based, human
Source text: As discussed earlier, an ideal combination of latency‐reversing compounds would reverse HIV‐1 latency in a broad spectrum of infected cells, without causing global T‐cell activation. Accordingly, we examined the effects of PH02 and PEP005 on T‐cell activation and toxicity on primary cells (PBMCs) isolated from healthy donors. […] Consequently, we examined the effect of lower concentrations of PEP005, alone and in combination with PH02 on these primary cells. […] Based on these observations, we expected that 1 nM PEP005 in combination with PH02 should produce negligible toxicity, and have minimal effects on T‐cell activation, while being capable of causing significant reversal of HIV latency (Fig 4F, Appendix Fig S2B).
Figure 9 Effect of PH02 in combination with PEP005 on T‐cell activation Expression of CD69 on PBMCs from three healthy donors (A, B, C; n = 3) was measured by flow cytometry following 24‐h treatment with 3 μM of PH02 alone or in combination with the indicated concentration of PEP005. Positive control samples were treated with PMA. Statistical significance, as determined by one‐way ANOVA, is indicated: *P < 0.05; **P < 0.005; ***P < 0.0005; ****P < 0.00005; ns, no significant difference. The exact P‐values are indicated in Appendix Table S1.
Luciferase assays were performed in 96‐well plate format, where 100 μl of cell culture containing 1 × 10^5 luciferase reporter cells was plated per well. After the indicated time of treatment, 100 μl of luciferase assay reagent (SuperlightTM luciferase reporter Gene Assay Kit; BioAssay Systems) was added per well, and incubated for 2 min at RT, when luciferase activity was measured on a VictorTM X3 Multilabel Plate Reader. Results were presented relative to the positive control samples treated with 50 nM PMA. T‐cell activation was measured using 1 × 10^5 wild‐type Jurkat^Tat cells or PBMCs purified from healthy donors, treated as indicated. After 24 h, cells were incubated with 2.4G2 antibody to block nonspecific binding and further stained with 5 μl of anti‐human CD69 or an IgG1 isotype control antibody conjugated with PE‐Cy^Tm7. After 30‐min incubation on ice, the cells were washed twice with PBS and analyzed using a Becton Dickinson LSRII flow cytometer (BD Biosciences) to determine mean fluorescence intensity (MFI), using FlowJo software. The mean fluorescence intensity (MFI) obtained from cells stained with IgG isotype antibody control was subtracted from that from cells stained with CD69 to compensate for background (MFICD69‐MFIIgG). IL‐2 production was measured in cell culture supernatants using a human IL‐2 ELISA System (eBioscience). […]

[1] = tested on: HIV‐1 LTR chromatin (Jurkat^Tat LTR‐DsRed clone #11); experiment: ChIP of histone H3K9 modifications at the HIV‐1 LTR; format: cell-based
Procedure: To characterize induction of HIV‐1 expression caused by PH02 in more detail, we employed chromatin immunoprecipitation (ChIP) assays to examine changes at the LTR promoter using Jurkat^Tat LTR‐DsRed clone #11.
Figure 6 Effect of PH02 on histone modification at HIV‐1 LTR and global histone modification • Chromatin immunoprecipitation assays were performed using Jurkat^Tat LTR‐DsRed, clone 11. The cells were treated for 24 h with PH02 and/or PEP005, and ChIP was performed using antibodies against histone H3K9‐me3 (left panel) and histone H3K9‐ac (right panel). The results are presented relative to ChIP with antihistone H3 antibodies. The results are determined from three biological replicates (n = 3). Statistical significance, as determined by ratio paired t‐test, is indicated as follows: ***P < 0.0005; ****P < 0.00005. The exact P‐values are indicated in Appendix Table S1. • Western blot analysis was performed using Jurkat^Tat LTR‐DsRed, clone 11, to detect the expression of SP1, NF‐κB p65, IκBα, total H3K9‐me3, and H3K9ac. The cells were treated for 24 h with PH02 and/or PEP005. Source data are available online for this figure.
Jurkat^Tat LTR‐DsRed cells, clone #11, were treated with 3 μM PH02 and/or 10 nM PEP005, for 24 h, and the cells cross‐linked with 1% formaldehyde for 10 min at RT. The cells were resuspended in cold NP‐40 lysis buffer (0.5% NP‐40, 10 mM Tris–HCl pH 7.8, 3 mM MgCl2) containing freshly added protease inhibitor cocktail (PIC, Sigma‐Aldrich) and spun to collect nuclei. The nuclei were sonicated in buffer containing 10 mM Tris–HCl (pH 7.8), 10 mM EDTA, and 0.5% SDS to obtain DNA fragments of 200–2,000 bp using a Bioruptor sonicator (Diagenode). The chromatin fractions were precleared with protein A/G agarose beads (Millipore) and immune‐precipitated with anti‐H3K9‐me3, anti‐H3K9‐ac, or anti‐H3 antibodies (Abcam) according to the manufacturer's instructions. Cross‐links were reversed by incubating the samples at 68°C for 2 h, and DNA was purified using QIAquick PCR columns and assayed by qPCR using primers specific to the HIV‐1 LTR core promoter, AGTGGCGAGCCCTCAGAT, and […]. Results are presented as normalized relative to that for histone H3 immunoprecipitates.

[2] = 3 μM PH02 or 1 nM PEP005 alone, 24 h
[3] = single treatment, 3 μM PH02 or 10 nM PEP005, 24 h

SMILES | CD69 induction (CD69 expression on PBMCs; 3 μM PH02 + 1 nM PEP005, 24 h) | CD69 induction (CD69 expression on PBMCs; [2]) | H3K9 acetylation on the LTR ([1]; 3 μM PH02 + 10 nM PEP005, 24 h) | H3K9‐3me at the LTR relative to total histone H3 ([1]; 3 μM PH02 + 10 nM PEP005, 24 h, versus either drug separately) | H3K9 acetylation on the LTR [1, 3] | H3K9‐3me at the LTR relative to total histone H3 [1, 3] | PEP005 concentration causing CD69 expression at levels similar to PMA (CD69 expression on PBMCs; alone and in combination with 3 μM PH02, 24 h)
CC(=O)Oc1ccccc1N(C=C1Sc2ccccc2C1=O)C(C)=O [PH02, 2‐{acetyl[(3‐oxo‐1‐benzothien‐2(3H)‐ylidene)methyl]amino}phenyl acetate] | did not cause significant CD69 induction | did not cause significant CD69 induction | significant elevation | equivalent reduction | accumulation of H3K9 acetylation | significantly reduced | –
C/C=C(/C)C(=O)O[C@H]1C(C)=C[C@]23C(=O)[C@@H](C=C(CO)[C@@H](O)[C@]12O)[C@H]1[C@@H](C[C@H]3C)C1(C)C [PEP005, ingenol‐3‐angelate, reference compound] | – | did not cause significant CD69 induction | – | – | accumulation of H3K9 acetylation | a similar effect was observed | higher than 1 nM
